In US20070148184A1, “Survivin-derived peptides and use thereof” (priority 2003, published 2007):

What was measured:
[1] = system: stage 1V melanoma patients; assay: Vaccination of melanoma patients with peptide pulsed dendritic cells; settings: human, in vivo
Description: All clinical procedures were in accordance with the Declaration of Helsinki and all patients provided informed consent prior to therapy. Stage 1V cutaneous or uveal melanoma patients were eligible when their disease was progressive despite at least two different chemo-, immuno, or chemoimmunotherapies. […] Important exclusion criteria were evidence of CNS metastases, active autoimmune or infectious diseases, pregnancy and lactation, as well as significant psychiatric abnormality. Peptide pulsed dendritic cells were generated as previously described (82). Briefly, PBMCs from leukapheresis were isolated on LymphoprepTM (Nycomed Pharma), frozen in aliquots and stored in liquid nitrogen. One week prior to vaccination, PBMCs were thawed, washed and cultured in medium containing gentamycin, glutamine and heat inactivated autologous plasma. On day 1 and 5, IL-4 and GM-CSF were added. To differentiate mature DCs, […] and prostaglandin E2 were added on day 6. […] Immunological responses were monitored by the ELISPOT assay, using PBMCs obtained every three months, to detect survivin96-104 specific IFN-γ release. […] The reaction was terminated upon the appearance of dark purple spots, which were quantitated using the AlphaImager System (Alpha Innotech, San Leandro, Calif., USA).

HLA-A2 = biological target: T1, HLA-A2 (Homo sapiens, UniProt P04439, D140Y/D185E/D98H/E176V/E277Q/G131W/G231S/I119V/I121R/I166T/I218V/L300P/L318F/N151K/N90K/P208A/P217A/Q86G/Q94H/R138H/R169H/T345S); assay: Assembly assay for peptide binding to class I MHC, HLA-A2; settings: Example 1, Table 1; read-out: C50 (peptide concentration for half maximal binding to HLA-A2)
T1 construct: stabilization of the class I molecules after loading of peptide to the peptide transporter deficient cell line T2; endogenous in cells; host or cells: T2 (TAP-deficient human hybrid cell line), metabolically labelled lysate
Experimental: This assembly assay is carried out as described previously (12,13), and it is based on stabilisation of the HLA molecule after loading of peptide to the peptide transporter deficient cell line T2. Subsequently, correctly folded stable HLA heavy chains are immunoprecipitated using conformation dependent antibodies and the peptide binding is quantitated.
Assembly assays for binding of the synthetic peptides to class I MHC molecules metabolically labeled with [35S]-methionine were carried out as described (12,13). The assembly assay is based on stabilization of the class I molecules after loading of peptide to the peptide transporter deficient cell line T2. Subsequently, correctly folded stable MHC heavy chains are immunoprecipitated using conformation-dependent antibodies. After IEF electrophoresis, gels were exposed to phosphoImager screens, and peptide binding was quantified using the Imagequant PhosphorImager program (Molecular Dynamics, Sunnyvale, Calif.).
The binding affinity of synthetic peptides (Invitrogen, Carlsbad, Calif., USA) to HLA-A1, -A2, A3, or -A11 molecules metabolically labeled with [^35S]-methionine was measured in the assembly assay, as described previously (12). The assay is based on peptide-mediated stabilization of empty HLA molecules released upon cell lysis, from the TAP-deficient cell lines. […] MHC heavy chain bands were quantified using the ImageGauge Phosphorimager program (FUJI photo film Co., Carrollton, Tex., USA). The intensity of the band is proportional to the amount of peptide-bound class I MHC complex recovered during the assay. Subsequently, the extent of stabilization of the HLA-molecule is directly related to the binding affinity of the added peptide. The peptide concentration used to analyze the recovery of the HLA-molecules was 40, 4, 0.4, 0.04 μM for HLA-A1 and HLA-A11, and 100, 10, 1, 0.1, 0.01 μM for HLA-A2 and HLA-A3. The C50 value was subsequently calculated for each peptide as the peptide concentration sufficient for half maximal stabilization.

Structure (SMILES): CSCC[C@H](NC(=O)[C@@H](N)CC(C)C)C(=O)N[C@@H](CC(C)C)C(=O)NCC(=O)N[C@@H](CCC(=O)O)C(=O)N[C@@H](Cc1ccccc1)C(=O)N[C@@H](CC(C)C)C(=O)N[C@@H](CCCCN)C(=O)N[C@@H](CC(C)C)C(=O)O [Sur1M2]
- vaccination associated toxicity [1]: vaccination associated toxicity was not observed
- EC50 (HLA-A2): 1 µM
